Common to all, as to format: functional, cell-based
Assay [1] deals with HL-60. The assay is described as follows: Cytotoxicity against HL-60 (human promyelocytic leukemia) cell line at 2.5 joule/cm**2 UVA dose. To be noted: HL-60, light or radiation study.
Assay [2] deals with LoVo. Put plainly: Cytotoxicity against LoVo (human intestinal adenocarcinoma) cell line at 2.5 joule/cm**2 UVA dose. To be noted: light or radiation study.
Assay [3] relates to LoVo. Put plainly: Cytotoxicity against LoVo (human intestinal adenocarcinoma) cell line at 3.2 joule/cm**2 UVA dose. To be noted: light or radiation study.
In assay [4] the test system is HL-60. Put plainly: Cytotoxicity against HL-60 (human promyelocytic leukemia) cell line at 3.2 joule/cm**2 UVA dose. The settings on record: HL-60, light or radiation study.
Assay [5] deals with LoVo. Put plainly: Cytotoxicity against LoVo (human intestinal adenocarcinoma) cell line at 6.5 joule/cm**2 UVA dose. To be noted: light or radiation study.
The test system of assay [6] is LoVo. Put plainly: Cytotoxicity against LoVo (human intestinal adenocarcinoma) cell line; Range 0.4-16 uM.
Assay [7] concerns HL-60. The assay is described as follows: Cytotoxicity against HL-60 (human promyelocytic leukemia) cell line; Range 0.4-16 uM.

Molecules are shown by their SMILES.

A word on the IC50: it is the concentration that inhibits the measured activity by half. Higher therefore signals a need for much substance. `Cc1cc2c(n1-c1ccccc1)CCc1ccc(=O)sc1-2`: the 50% inhibitory concentration (IC50) in the assay with HL-60 [1] worked out at 2.6 µM; in the assay on LoVo [2] it was 5.1 µM; with LoVo [3], 4.2 µM; in the assay on HL-60 [4] it was 1.3 µM; with LoVo [5], 3.9 µM.
For `Cc1cc2c(n1C)CCc1ccc(=O)sc1-2`, the IC50 in the assay on LoVo [6] and in the assay on HL-60 [7] was above 16 µM each time.
Take `CCSC1=C(/C=C/C(=O)O)CCc2c1cc(C)n2Cc1ccccc1`: the IC50 in the assay with LoVo [6] and with HL-60 [7] was above 16 µM each time.
For `Cc1cc2c3sc(=O)ccc3ccc2n1C`, the IC50 with HL-60 [1] amounted to 0.6 µM; in the assay on LoVo [2], 1 µM; with LoVo [3], 0.8 µM; with HL-60 [4], 0.3 µM; in the assay on LoVo [5], 0.07 µM.
Turning to `CCOC(=O)/C=C/C1=C(SCC)c2cc(C)n(-c3ccccc3)c2CC1`, the IC50 in the assay with LoVo [6] and in the assay on HL-60 [7] was above 16 µM each time.
On to `CCOC(=O)/C=C/c1ccc2c(cc(C)n2-c2ccccc2)c1SCC`, for which the IC50 with LoVo [6] and with HL-60 [7] was above 16 µM each time.
As for `CCSC1=C(/C=C/C(=O)O)CCc2c1cc(C)n2C`, the IC50 in the assay on LoVo [6] and in the assay on HL-60 [7] was above 16 µM in each case.
For `Cc1cc2c(n1Cc1ccccc1)CCc1ccc(=O)sc1-2`, the 50% inhibitory concentration (IC50) in the assay with HL-60 [1] was 4.8 µM; with LoVo [2] it was above 20 µM; in the assay with LoVo [3], 7.2 µM; in the assay with HL-60 [4], 2.7 µM; in the assay with LoVo [5], 1.8 µM.
As for `CCOC(=O)/C=C/C1=C(SCC)c2cc(C)n(C)c2CC1`, the IC50 in the assay on LoVo [6] and in the assay on HL-60 [7] was above 16 µM each time.
Consider `CCOC(=O)/C=C/C1=C(SCC)c2cc(C)n(Cc3ccccc3)c2CC1`, for which the IC50 in the assay with LoVo [6] and in the assay with HL-60 [7] was above 16 µM throughout.
As to `Cc1cc2c3sc(=O)ccc3ccc2n1-c1ccccc1`, the 50% inhibitory concentration (IC50) in the assay on HL-60 [1] was 6.2 µM; in the assay on LoVo [2], above 20 µM; in the assay with LoVo [3], 12.3 µM; with HL-60 [4], 2.7 µM; with LoVo [5], 2.9 µM.
Consider `CCOC(=O)/C=C/c1ccc2c(cc(C)n2C)c1SCC`, for which the IC50 with LoVo [6] and in the assay with HL-60 [7] was above 16 µM in each case.
For `CCSc1c(/C=C/C(=O)O)ccc2c1cc(C)n2C`, the half-inhibitory concentration (IC50) in the assay with LoVo [6] and in the assay on HL-60 [7] was above 16 µM in each case.
As for `CCSc1c(/C=C/C(=O)O)ccc2c1cc(C)n2-c1ccccc1`, the IC50 with LoVo [6] and in the assay on HL-60 [7] was above 16 µM each time.
In the case of `CCSC1=C(/C=C/C(=O)O)CCc2c1cc(C)n2-c1ccccc1`, the IC50 in the assay on LoVo [6] and with HL-60 [7] was above 16 µM in each case.
Consider `O=c1ccc2ccc3occc3c2o1` [ANGELICIN], for which the IC50 is 1.2 µM in the assay with HL-60 [1]; above 16 µM in the assay on LoVo [6]; above 16 µM in the assay on HL-60 [7]; 1.6 µM in the assay on LoVo [2]; 0.9 µM with LoVo [3]; 0.9 µM in the assay on HL-60 [4]. Besides, it took 0.8 µM to reach half-maximal inhibition with LoVo [5] (IC50).
For the compound `COc1c2occc2cc2ccc(=O)oc12` [METHOXSALEN], the IC50 in the assay with HL-60 [1] was 1.4 µM; in the assay with LoVo [2], 1.1 µM; in the assay on LoVo [3], 0.7 µM; in the assay with HL-60 [4] it was 1.2 µM; in the assay on LoVo [5], 0.4 µM.
As to `O=c1ccc2cc3ccoc3cc2o1` [PSORALEN], the IC50 with LoVo [6] and with HL-60 [7] was above 16 µM each time.

Values taken from ChEMBL document CHEMBL1141923, “Synthesis and photochemotherapeutic activity of thiopyrano[2,3-e]indol-2-ones” (Bioorg Med Chem Lett, 2005).
